Experimental findings from patent US20220151962A1, “NOVEL INHIBITORS OF HISTONE DEACETYLASE 10” (Deutsches Krebsforschungszentrum, priority 2019, published 2022) are described below.

Several values for one entry are separate records, joined by “and”; a condition that tells them apart may be missing. Equal entries are not always repeated.

Assay [1] concerns the target T1, TwinStrep-GST-HDAC10 (Homo sapiens, UniProt Q969S8).
T1 construct: made in house; host or cells: Sf21 insect cells (baculovirus, pFastBac1)
T1 sequence (Q969S8 1-669): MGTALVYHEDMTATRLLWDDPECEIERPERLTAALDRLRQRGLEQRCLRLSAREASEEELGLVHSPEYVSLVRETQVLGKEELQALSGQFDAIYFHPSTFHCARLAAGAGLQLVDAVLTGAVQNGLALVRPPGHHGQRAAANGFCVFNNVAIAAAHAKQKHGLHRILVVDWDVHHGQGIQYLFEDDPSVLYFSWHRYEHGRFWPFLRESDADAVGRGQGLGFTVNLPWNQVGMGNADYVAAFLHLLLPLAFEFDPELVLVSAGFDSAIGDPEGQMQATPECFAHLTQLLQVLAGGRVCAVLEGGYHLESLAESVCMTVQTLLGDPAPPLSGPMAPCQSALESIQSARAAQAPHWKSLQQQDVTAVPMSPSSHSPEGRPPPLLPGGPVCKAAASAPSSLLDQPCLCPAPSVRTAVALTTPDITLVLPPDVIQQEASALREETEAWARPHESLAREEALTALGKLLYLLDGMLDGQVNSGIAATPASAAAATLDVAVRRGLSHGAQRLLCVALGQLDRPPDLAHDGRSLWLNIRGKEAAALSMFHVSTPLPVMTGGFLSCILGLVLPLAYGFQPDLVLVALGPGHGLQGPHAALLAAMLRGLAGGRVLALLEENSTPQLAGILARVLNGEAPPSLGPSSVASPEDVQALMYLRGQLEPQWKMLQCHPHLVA
The experiment in a line: HDAC10 TR-FRET assay (Tubastatin-AF647-Tracer displacement). The assay is classed as binding. To be noted: two separate measurements, each made in triplicate; read-out: HDAC10 FRET IC50. On the technique in general: Time-resolved FRET reads energy transfer from a long-lived donor to a nearby acceptor.

Assay [2] deals with T2, HDAC1 (Homo sapiens, UniProt Q13547).
T2 construct: purchased BPS Bioscience 50051
Briefly: HDAC1 (ZMAL) fluorogenic activity assay. The class given is biochemical. To be noted: read-out: HDAC1 (ZMAL) percent enzyme inhibition.

In assay [3] the target is T3, HDAC6 (Homo sapiens, UniProt Q9UBN7).
T3 construct: purchased BPS Bioscience 50006
T3 sequence (Q9UBN7 1-1215): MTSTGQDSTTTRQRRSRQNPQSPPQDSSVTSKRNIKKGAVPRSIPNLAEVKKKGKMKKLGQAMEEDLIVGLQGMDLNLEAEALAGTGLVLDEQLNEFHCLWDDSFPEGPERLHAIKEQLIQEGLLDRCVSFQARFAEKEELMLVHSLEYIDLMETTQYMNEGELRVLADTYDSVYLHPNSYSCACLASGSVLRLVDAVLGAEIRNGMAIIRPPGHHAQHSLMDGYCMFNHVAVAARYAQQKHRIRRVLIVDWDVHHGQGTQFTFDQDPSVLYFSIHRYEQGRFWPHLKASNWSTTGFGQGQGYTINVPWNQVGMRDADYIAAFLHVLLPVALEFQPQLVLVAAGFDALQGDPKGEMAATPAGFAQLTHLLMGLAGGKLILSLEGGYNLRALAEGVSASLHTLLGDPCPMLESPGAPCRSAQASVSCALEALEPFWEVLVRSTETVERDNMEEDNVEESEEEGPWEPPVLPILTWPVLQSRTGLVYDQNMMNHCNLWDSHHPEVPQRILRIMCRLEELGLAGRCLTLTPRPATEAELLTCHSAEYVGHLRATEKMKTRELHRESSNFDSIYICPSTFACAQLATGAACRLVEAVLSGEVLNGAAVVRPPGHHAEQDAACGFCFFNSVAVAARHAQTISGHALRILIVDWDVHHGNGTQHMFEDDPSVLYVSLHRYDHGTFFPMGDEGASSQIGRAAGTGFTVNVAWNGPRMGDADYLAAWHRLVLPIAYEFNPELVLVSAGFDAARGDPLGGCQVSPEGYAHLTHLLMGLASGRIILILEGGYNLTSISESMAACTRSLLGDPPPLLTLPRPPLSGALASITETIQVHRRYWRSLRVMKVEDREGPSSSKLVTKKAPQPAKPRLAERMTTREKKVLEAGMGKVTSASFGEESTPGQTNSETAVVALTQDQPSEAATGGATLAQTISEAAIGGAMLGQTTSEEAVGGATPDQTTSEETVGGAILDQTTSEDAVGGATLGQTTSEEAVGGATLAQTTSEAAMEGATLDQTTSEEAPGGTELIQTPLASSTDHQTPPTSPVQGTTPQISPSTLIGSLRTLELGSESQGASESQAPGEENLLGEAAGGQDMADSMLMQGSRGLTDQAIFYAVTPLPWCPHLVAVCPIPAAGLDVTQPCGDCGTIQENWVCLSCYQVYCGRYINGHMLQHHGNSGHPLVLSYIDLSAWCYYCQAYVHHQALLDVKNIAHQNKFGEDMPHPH
The experiment in a line: HDAC6 (ZMAL) fluorogenic activity assay. The assay is classed as biochemical.

For assay [4], the target named is T4, zebrafish HDAC10 (Danio rerio, UniProt F1QCV2).
T4 sequence (F1QCV2 1-675): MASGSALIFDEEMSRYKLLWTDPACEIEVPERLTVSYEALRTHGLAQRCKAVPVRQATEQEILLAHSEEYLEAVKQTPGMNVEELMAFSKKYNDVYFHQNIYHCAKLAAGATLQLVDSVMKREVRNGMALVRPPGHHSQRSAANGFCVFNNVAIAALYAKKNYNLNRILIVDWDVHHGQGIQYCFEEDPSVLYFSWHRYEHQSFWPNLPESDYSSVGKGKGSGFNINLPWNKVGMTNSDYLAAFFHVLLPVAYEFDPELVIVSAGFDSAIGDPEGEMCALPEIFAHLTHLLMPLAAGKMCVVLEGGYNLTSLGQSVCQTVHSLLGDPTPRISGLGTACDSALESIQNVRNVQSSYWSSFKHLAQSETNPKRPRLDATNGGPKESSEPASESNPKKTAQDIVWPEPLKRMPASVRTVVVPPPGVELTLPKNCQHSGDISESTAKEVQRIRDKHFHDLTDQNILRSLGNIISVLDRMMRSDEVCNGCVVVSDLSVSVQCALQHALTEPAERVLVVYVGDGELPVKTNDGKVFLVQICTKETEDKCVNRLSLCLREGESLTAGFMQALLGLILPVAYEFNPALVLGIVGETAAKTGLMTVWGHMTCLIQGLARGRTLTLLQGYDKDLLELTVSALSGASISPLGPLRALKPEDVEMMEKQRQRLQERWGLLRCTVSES
The experiment in a line: Zebrafish HDAC10 assay (zHDAC10), Ac-spermidine-AMC substrate. The assay is classed as biochemical. To be noted: for inhibition at 0.1 µM / inhibition at 1 µM / inhibition at 10 µM: read-out: zHDAC10 percent enzyme inhibition.

The target of assay [5] is T5, HDAC8 (Homo sapiens, UniProt Q9BY41).
T5 sequence (Q9BY41 1-377): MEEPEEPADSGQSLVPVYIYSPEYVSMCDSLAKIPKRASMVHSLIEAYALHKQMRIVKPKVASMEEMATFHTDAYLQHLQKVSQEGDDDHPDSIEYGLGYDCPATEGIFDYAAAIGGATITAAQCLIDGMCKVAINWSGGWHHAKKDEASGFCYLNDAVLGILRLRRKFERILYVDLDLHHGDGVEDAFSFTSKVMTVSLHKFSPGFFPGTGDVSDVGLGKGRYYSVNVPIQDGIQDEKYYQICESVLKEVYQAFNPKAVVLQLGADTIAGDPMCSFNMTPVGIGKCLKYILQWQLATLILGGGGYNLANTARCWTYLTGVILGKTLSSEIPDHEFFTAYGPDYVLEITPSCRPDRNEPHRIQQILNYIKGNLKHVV
Briefly: HDAC8 (FDL) Fluor de Lys assay. The class given is biochemical. Details: obtained from C; Romier (academic laboratory, not a vendor). To be noted: for inhibition at 1 µM / inhibition at 10 µM: read-out: HDAC8 (FDL) percent enzyme inhibition.

Assay [6] has as its target T6, HDAC10-nanoluciferase fusion in HeLa cells (Homo sapiens, UniProt Q969S8).
T6 sequence (Q969S8 1-669): T1 sequence (Q969S8 1-669)
The experiment in a line: BRET intracellular target engagement assay, HDAC10. In general terms: In BRET a luciferase serves as donor, and the signal depends on an acceptor being close.

Setting [7] is: read-out: HDAC6 (ZMAL) percent enzyme inhibition.

T2 sequence (Q13547 whole entry): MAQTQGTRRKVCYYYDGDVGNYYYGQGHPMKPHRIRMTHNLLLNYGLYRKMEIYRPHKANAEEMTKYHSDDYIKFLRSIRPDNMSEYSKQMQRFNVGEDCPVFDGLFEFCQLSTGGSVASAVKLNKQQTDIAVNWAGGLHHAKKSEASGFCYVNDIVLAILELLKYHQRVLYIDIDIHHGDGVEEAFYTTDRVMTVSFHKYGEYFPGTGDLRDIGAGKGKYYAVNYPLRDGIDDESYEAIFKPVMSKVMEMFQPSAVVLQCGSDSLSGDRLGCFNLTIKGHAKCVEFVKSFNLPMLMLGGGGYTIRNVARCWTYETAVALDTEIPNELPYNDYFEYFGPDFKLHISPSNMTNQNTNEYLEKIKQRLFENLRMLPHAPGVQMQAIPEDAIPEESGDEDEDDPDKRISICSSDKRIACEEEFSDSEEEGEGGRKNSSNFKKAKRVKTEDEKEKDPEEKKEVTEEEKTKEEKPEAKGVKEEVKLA

For `O=C(NO)C1CCN(Cc2ccc(-c3ccccc3)cc2)CC1` [DH35, 1-([1,1′-Biphenyl]-4-ylmethyl)-N-hydroxypiperidine-4-carboxamide], the 50% inhibitory concentration (IC50) (commonly the midpoint of a concentration-inhibition curve) in assay [1] is 1780 nM and 2560 nM. For the same compound, the inhibition (usually the relative decrease from the control value, in per cent) at 1 µM in assay [2] came to 5%; in assay [3] (setting [7]), 11%; in assay [4], 24%; in assay [5] it was 37%. Also, the inhibition at 10 µM in assay [2] was found to be 35%; in assay [3] (setting [7]) it was 57%; in assay [4] it was 69%; in assay [5], 70%. The inhibition at 0.1 µM in assay [4] was 7%.

Consider `O=C(NO)C1CCN(Cc2ccccc2)CC1` [DH25, 1-Benzyl-N-hydroxypiperidine-4-carboxamide], for which the half-maximal inhibitory concentration (IC50) in assay [1] is 2450 nM and 3430 nM. The inhibition at 1 µM came to 8% in assay [2], 22% in assay [3] (setting [7]), 15% in assay [4] and 36% in assay [5]. In addition, the inhibition at 10 µM in assay [2] amounted to 18%; in assay [3] (setting [7]), 46%; in assay [4], 50%; in assay [5], 61%. For the same compound, the inhibition at 0.1 µM in assay [4] was determined as 9%.

As for `O=C(NO)C1CCN(CCc2ccccc2)CC1` [DH22, N-Hydroxy-1-phenethylpiperidine-4-carboxamide], the 50% inhibitory concentration (IC50) in assay [1] is 175 nM and 260 nM. In addition, the inhibition at 1 µM was -1% in assay [2], -2% in assay [3] (setting [7]), 20% in assay [4] and 27% in assay [5]. The inhibition at 10 µM was determined as 7% in assay [2], 17% in assay [3] (setting [7]), 80% in assay [4] and 56% in assay [5]. For the same compound, in assay [4], the inhibition at 0.1 µM was 13%.

On to `O=C(NO)C1CCN(CCc2ccc(Br)cc2)CC1` [DH67, 1-(4-Bromophenethyl)-N-hydroxypiperidine-4-carboxamide], for which the inhibition at 1 µM in assay [2] was 7%; in assay [3] (setting [7]), -4%; in assay [4], 40%; in assay [5], 33%. Also, the inhibition at 10 µM in assay [2] stood at 6%; in assay [3] (setting [7]), 18%; in assay [4] it was 67%; in assay [5], 69%. Further, in assay [4], the inhibition at 0.1 µM stood at 7%. The compound further showed an IC50 in assay [6] of 375 nM.

Turning to `O=C(NO)C1CCN(CCc2cccc(Br)c2)CC1` [DH71, 1-(3-Bromophenethyl)-N-hydroxypiperidine-4-carboxamide], the inhibition at 1 µM is -5% in assay [2], -2% in assay [3] (setting [7]), 10% in assay [4] and 27% in assay [5]. Further, the inhibition at 10 µM in assay [2] turned out to be 6%; in assay [3] (setting [7]), 28%; in assay [4], 61%; in assay [5], 70%. Moreover, in assay [4], the inhibition at 0.1 µM was found to be 0%. The compound also came in with an IC50 in assay [6] of 391 nM.

As for `O=C(NO)C1CCN(CC(c2ccccc2)c2ccccc2)CC1` [DH40, 1-(2,2-Diphenylethyl)-N-hydroxypiperidine-4-carboxamide], the IC50 in assay [1] was 2320 nM and 2970 nM. Also, the inhibition at 1 µM in assay [2] is -7%; in assay [3] (setting [7]), 19%; in assay [4], 9%; in assay [5], 42%. For the same compound, the inhibition at 10 µM came to 8% in assay [2], 65% in assay [3] (setting [7]), 27% in assay [4] and 75% in assay [5]. Also, the inhibition at 50 µM in assay [2] (at 50 μM) is 24%; in assay [3] (at 50 μM, read-out: HDAC6 (ZMAL) percent enzyme inhibition), 88%. The inhibition at 0.1 µM in assay [4] is 1%.

Turning to `O=C(NO)C1CCN(CCNCc2ccc(Br)cc2)CC1` [DH88, 1-(2-((4-Bromobenzyl)amino)ethyl)-N-hydroxypiperidine-4-carboxamide], the inhibition at 1 µM in assay [2] was -8%. For the same compound, the inhibition at 10 µM in assay [2] is 10%. Besides, the IC50 in assay [3] was determined as 15000 ± 4000 nM; in assay [4], 37 ± 4 nM; in assay [5] it was 700 ± 50 nM.
